Results as given in US7799794B2, “Treatment for cardiovascular disease” (Merck Sharp & Dohme Corp., priority 2000, dated 2010).
Marks after values point to notes of the source that are not given here.

Key:
Sprague-Dawley rats [1] = assay: Mild hyperuricemia model: 2% oxonic acid on normal salt diet (Example 1); assay type: in vivo, rat
Protocol: All studies utilized adult male Sprague-Dawley rats (Simonsen Laboratories, Gilroy Calif.)(200-250 g).
Rats were placed on a normal salt (NaCl 0.26%) diet with or without 2% oxonic acid (Ziegler Bros, Gardners, Pa.) added to the diet and rats were sacrificed at week 7.
Am J Physiol 268:F1164-76, 1995].
(§1) Am J Clin Pathol 1957; 28:152.]. Serum blood urea nitrogen was measured by a standard kit (Sigma, St Louis, Mo.).
(§2) Renal biopsies were fixed in Methyl-Carnoy's, 10% formalin or 100% ethanol and embedded in paraffin. The presence of uric acid crystals was evaluated by staining 4-μm ethanol-fixed sections with de Galantha and modified Von Kossa stains. Kidney tissue from rats with acute uric acid nephropathy, induced with oxonic acid and uric acid administration was used as a positive control [Stavric, B., Johnson, W. J., and Grice, H. C., Uric acid nephropathy: An experimental model, Proc. Soc. Exp. Biol. Med. 130: 512-16 (1969).]. Light microscopy was performed in 4-μm sections of Methyl-Carnoy's fixed tissue stained with periodic acid Schiff (PAS) reagent or with hematoxylin and eosin.

Sprague-Dawley rats [2] = assay: Allopurinol intervention or oxonic acid withdrawal in hyperuricemic rats: blood pressure (Example 3); assay type: in vivo, rat; conditions: oxonic acid withdrawn at 7 weeks, LSD continued
Text: (§3) Rats were placed on the low sodium diet with oxonic acid for 7 weeks, and then were matched based on uric acid level and blood pressure in various groups to either receive allopurinol, have the oxonic acid withdrawn from the diet, or continue the oxonic acid/low salt diet. A control group of six rats were placed on the lowsodium diet alone for 11 weeks. All of these rats were sacrificed at week 11.
(§4) Am J Physiol 268:F1 164-76, 1995].
as §1

Sprague-Dawley rats [3] = assay: Renal findings at 11 weeks: immunohistochemistry and BUN (Example 3); assay type: in vivo, rat
Protocol: as §3, §1, §2
Methyl-Carnoy's fixed tissue sections were analyzed by indirect immunoperoxidase [Lombardi, D., Gordon , K. L., Polinsky, P., Suga, S., Schwartz, S. M., and Johnson, R. J. Salt sensitive hypertension develops after transient exposure to angiotensin II. Hypertension 33:1013-1019, 1999] staining with the following primary antibodies: OP199, a goat polyclonal antibody against osteopontin (OPN)(gift of C. Giachelli, Univ of Wash., Seattle); ED-1, a monoclonal antibody to rat monocytes and macrophages (Serotec); goat antihuman type III collagen (Southern Biotechnology Associates Inc, Birminghan Ala.); and anti-renin, a mouse antibody to human renin (Sanofi Recherche, Montpellier, France). Sections were incubated with a secondary antibody followed by horseradish peroxidase-conjugated avidin D (Vector Laboratories, Burlingame, Calif.), diaminobenzidine (Sigma) with or without nickel chloride as a chromogen, and counsterstained with methyl green.
NOS1 was detected on formalin fixed tissue sections with a rabbit anti-rat neuronal nitric oxide synthase (Transduction Laboratories, Lexington, Ky.), followed by a biotinylated secondary antibody, diaminobenzidine with nickel chloride and counterstained with nuclear fast red.
All quantification was performed blinded. The tubular expression of osteopontin (OPN), which is a sensitive marker of tubulointerstitial injury, was calculated as the percent of renal cortex occupied by OPN-positive tubules [Lombardi, D., Gordon, K. L., Polinsky, P., Suga, S., Schwartz, S. M., and Johnson, R. J. Salt sensitive hypertension develops after transient exposure to angiotensin II. Hypertension 33:1013-1019, 1999]. Utilizing computer-assisted image analysis software (Optimas V6.2, Media Cybernetics, Silver Springs, Md.) and digitized images, the percent of area occupied by OPN positive tubules per 4 mm^2 field at a magnification of 50× was measured and the mean percent area calculated for each biopsy. The interstitial deposition of collagen type III was calculated as the % of renal cortex occupied by collagen III, noted by immunostaining, by computer image analysis. The mean number of interstitial macrophages (ED-1+cells) in each biopsy was calculated in a blinded manner by counting the total number of positive interstitial cortical cells in 20 sequentially selected 0.25 mm^2 grids at 200× magnification. Renin expression was quantified by the number of glomeruli with positive staining for juxtaglomerular renin using a minimum of 100 glomeruli in each biopsy as previously described [Eng, E., et al., Renal proliferation and phenotypic changes in rats with two-kidney, one-clip Goldblatt hypertension. […]

Sprague-Dawley rats [4] = assay: Enalapril or L-Arginine in hyperuricemic rats on low salt diet: blood pressure (Example 4); assay type: in vivo, rat; conditions: hyperuricemic control rats, OA + low salt diet
Protocol: Rats were placed on either low salt diet, low salt diet with 2% oxonic acid, low salt diet with oxonic acid and enalapril (1 mg/kg/d in drinking water), or low salt diet with oxonic acid and L-Arginine (1% in drinking water).
as §4

Sprague-Dawley rats [5] = assay: Cyclosporine nephropathy with or without oxonic acid: body weight, renal function, uric acid, CSA level (Example 5); conditions: 7 weeks
Protocol: Studies were conducted in 20 adult male Sprague-Dawley rats (Simmonsen Laboratories, Gilroy, Calif., USA) weighing 200 to 250 grams. All rats were fed a low salt diet (0.125% NaCl)(Zeigler Bros, Gardners, Pa.), with water ad libitum. […] In order to induce hyperuricemia, oxonic acid 2% was added to low salt diet. Because rats have uricase, an hepatic enzyme which degrades uric acid to allantoin, the blockade of this enzyme by oxonic acid is necessary.
After 7 weeks, rats were placed in individual metabolic cages for 24-hour urine collection. The following day, rats were anesthetized with xylazine and ketamine, serum was collected for creatinine and uric acid measurements, and both kidneys were obtained for histology evaluation. Biopsies were fixed in 10% formalin, 100% ethanol or Methyl Camoy's.
Serum and urine creatinine were measured by a standard picric acid method (Sigma Diagnostics creatinine kit, St. Louis, Mo.). Serum and urine uric acid were measured by a modified carbonate-phosphotungstate method [Henry, R. J., Sobel, C., and Kim, J., A modified carbonate phosphotungstate method for the determination of uric acid and comparison with the spectophotometric uricase method. Am J Clin Pathol 1957; 28:152.]. Fractional uric acid excretion and creatinine clearance were calculated by standard formulas.
All values are expressed as mean±SD, unless otherwise stated. The differences between groups were compared with unpaired Student's t tests.

With `O=C(O)c1nc(=O)[nH]c(=O)[nH]1` [oxonic acid] the “body weight at the end of the study” value (Sprague-Dawley rats [1]; 2% oxonic acid diet, normal salt diet, 7 weeks, control 394±18) was 367.6 ± 17 g, the urinary uric acid (Sprague-Dawley rats [1]; 2% oxonic acid in the diet) was “increased two-fold” and the “special stains for uric acid crystals in kidney” value (Sprague-Dawley rats [1]; 2% oxonic acid, 7 weeks) was “negative”. The “blood pressure and serum uric acid in hypertensive, hyperuricemic rats” value (Sprague-Dawley rats [2]) was “reduction in the blood pressure in association with a fall in serum uric acid values”, the BUN (Sprague-Dawley rats [3]; OA withdrawal at 7 weeks) was 18.8 ± 0.8 mg/dL and the “ED-1 (macrophages)” value (Sprague-Dawley rats [3]; OA withdrawal at 7 weeks) was 33.0 ± 1.6 cells/mm2. For the same molecule, the NOS-1 (Sprague-Dawley rats [3]; OA withdrawal at 7 weeks) was 83.1 ± 10.8 positive cells/100 glomeruli, the OPN (Sprague-Dawley rats [3]; OA withdrawal at 7 weeks) was 1.08 ± 0.06 % increase and the Renin (Sprague-Dawley rats [3]; OA withdrawal at 7 weeks) was 50.5 ± 2.1 % positive JGA. The “Type III collagen” value (Sprague-Dawley rats [3]; OA withdrawal at 7 weeks) was 8.9 ± 1.6 %, the OPN (Sprague-Dawley rats [3]; low NaCl diet, allopurinol added at 7 weeks, control 0.7 ± 0.08) was 1.33 ± 0.14 % increase and the “Type III collagen” value (Sprague-Dawley rats [3]; low NaCl diet, allopurinol added at 7 weeks, control 7.2 ± 0.6) was 13.9 ± 0.6 %. For the same molecule, the BUN (Sprague-Dawley rats [3]; low NaCl diet, allopurinol added at 7 weeks, control 16.6 ± 0.9) was 24.1 ± 1.7 mg/dL, the “ED-1 (macrophages)” value (Sprague-Dawley rats [3]; low NaCl diet, allopurinol added at 7 weeks, control 27.8 ± 1.4) was 36.5 ± 1.4 cells/mm2 and the Renin (Sprague-Dawley rats [3]; low NaCl diet, allopurinol added at 7 weeks, control 41.0 ± 1.9) was 58.4 ± 0.8 % positive JGA. The NOS-1 (Sprague-Dawley rats [3]; low NaCl diet, allopurinol added at 7 weeks, control 104.4 ± 11.5) was 65.6 ± 7.1 positive cells/100 glomeruli, the “increase in systolic blood pressure over the 7 week dietary period” value (Sprague-Dawley rats [4]) was “approximately 20 mm Hg” and the “urinary uric acid” value (Sprague-Dawley rats [5]; 24-hour urine, vehicle 2.19 ± 0.66) was 5.06 ± 2.81^a mg/day. For the same molecule, the “Serum Uric Acid” value (Sprague-Dawley rats [5]; mean±SD, vehicle 1.62 ± 0.31) was 4.08 ± 1.22^a mg/dl, the Weight (Sprague-Dawley rats [5]; mean±SD, vehicle 422.2 ± 31.2) was 421.2 ± 28.8 grams and the “FE urate (fractional excretion of uric acid)” value (Sprague-Dawley rats [5]; vehicle 0.12 ± 0.06) was 0.11 ± 0.14. The “Urate/creatinine (urine)” value (Sprague-Dawley rats [5]; vehicle 0.20 ± 0.08) was 0.35 ± 0.27, the “Serum Creatinine” value (Sprague-Dawley rats [5]; vehicle 0.94 ± 0.24) was 0.88 ± 0.19 mg/dL and the “Creatnine Clearance” value (Sprague-Dawley rats [5]; vehicle 1.39 ± 0.73) was 1.94 ± 0.73 mL/min.
